Results on twelve molecules are retold here after ChEMBL document CHEMBL3044659, “Docking, synthesis, and pharmacological evaluation of isoindoline derivatives as anticonvulsant agents” (Med Chem Res, 2013).

Activity calls are given as the source filed them.

The target of assay [1] is Sodium channel protein type 2 subunit alpha (Homo sapiens, UniProt Q99250). Description: Binding affinity to Nav 1.2 (unknown origin).
Assay [2] has as its system Mus musculus. Description: Anticonvulsant activity in pentylenetetrazole-induced seizure Swiss Mus musculus (mouse) model assessed as increase in clonic seizure threshold at 40 mg/kg, ip measured after 30 min (reference value: 38.9 +/-1.01 mg/kg). Format: functional. The settings on record: route intraperitoneal.
Assay [3] has as its system Mus musculus. Briefly: Anticonvulsant activity in pentylenetetrazole-induced seizure Swiss Mus musculus (mouse) model assessed as increase in tonic seizure threshold at 40 mg/kg, ip measured after 30 min (reference value: 59.58 +/-1.01 mg/kg). Format: functional. The settings on record: route intraperitoneal.
Assay [4] concerns Mus musculus. Briefly: Anticonvulsant activity in pentylenetetrazole-induced seizure Swiss Mus musculus (mouse) model assessed as increase in clonic seizure threshold at 10 to 20 mg/kg, ip measured after 30 min. It is filed as functional, organism-based.

Chain of Sodium channel protein type 2 subunit alpha (Q99250 whole entry): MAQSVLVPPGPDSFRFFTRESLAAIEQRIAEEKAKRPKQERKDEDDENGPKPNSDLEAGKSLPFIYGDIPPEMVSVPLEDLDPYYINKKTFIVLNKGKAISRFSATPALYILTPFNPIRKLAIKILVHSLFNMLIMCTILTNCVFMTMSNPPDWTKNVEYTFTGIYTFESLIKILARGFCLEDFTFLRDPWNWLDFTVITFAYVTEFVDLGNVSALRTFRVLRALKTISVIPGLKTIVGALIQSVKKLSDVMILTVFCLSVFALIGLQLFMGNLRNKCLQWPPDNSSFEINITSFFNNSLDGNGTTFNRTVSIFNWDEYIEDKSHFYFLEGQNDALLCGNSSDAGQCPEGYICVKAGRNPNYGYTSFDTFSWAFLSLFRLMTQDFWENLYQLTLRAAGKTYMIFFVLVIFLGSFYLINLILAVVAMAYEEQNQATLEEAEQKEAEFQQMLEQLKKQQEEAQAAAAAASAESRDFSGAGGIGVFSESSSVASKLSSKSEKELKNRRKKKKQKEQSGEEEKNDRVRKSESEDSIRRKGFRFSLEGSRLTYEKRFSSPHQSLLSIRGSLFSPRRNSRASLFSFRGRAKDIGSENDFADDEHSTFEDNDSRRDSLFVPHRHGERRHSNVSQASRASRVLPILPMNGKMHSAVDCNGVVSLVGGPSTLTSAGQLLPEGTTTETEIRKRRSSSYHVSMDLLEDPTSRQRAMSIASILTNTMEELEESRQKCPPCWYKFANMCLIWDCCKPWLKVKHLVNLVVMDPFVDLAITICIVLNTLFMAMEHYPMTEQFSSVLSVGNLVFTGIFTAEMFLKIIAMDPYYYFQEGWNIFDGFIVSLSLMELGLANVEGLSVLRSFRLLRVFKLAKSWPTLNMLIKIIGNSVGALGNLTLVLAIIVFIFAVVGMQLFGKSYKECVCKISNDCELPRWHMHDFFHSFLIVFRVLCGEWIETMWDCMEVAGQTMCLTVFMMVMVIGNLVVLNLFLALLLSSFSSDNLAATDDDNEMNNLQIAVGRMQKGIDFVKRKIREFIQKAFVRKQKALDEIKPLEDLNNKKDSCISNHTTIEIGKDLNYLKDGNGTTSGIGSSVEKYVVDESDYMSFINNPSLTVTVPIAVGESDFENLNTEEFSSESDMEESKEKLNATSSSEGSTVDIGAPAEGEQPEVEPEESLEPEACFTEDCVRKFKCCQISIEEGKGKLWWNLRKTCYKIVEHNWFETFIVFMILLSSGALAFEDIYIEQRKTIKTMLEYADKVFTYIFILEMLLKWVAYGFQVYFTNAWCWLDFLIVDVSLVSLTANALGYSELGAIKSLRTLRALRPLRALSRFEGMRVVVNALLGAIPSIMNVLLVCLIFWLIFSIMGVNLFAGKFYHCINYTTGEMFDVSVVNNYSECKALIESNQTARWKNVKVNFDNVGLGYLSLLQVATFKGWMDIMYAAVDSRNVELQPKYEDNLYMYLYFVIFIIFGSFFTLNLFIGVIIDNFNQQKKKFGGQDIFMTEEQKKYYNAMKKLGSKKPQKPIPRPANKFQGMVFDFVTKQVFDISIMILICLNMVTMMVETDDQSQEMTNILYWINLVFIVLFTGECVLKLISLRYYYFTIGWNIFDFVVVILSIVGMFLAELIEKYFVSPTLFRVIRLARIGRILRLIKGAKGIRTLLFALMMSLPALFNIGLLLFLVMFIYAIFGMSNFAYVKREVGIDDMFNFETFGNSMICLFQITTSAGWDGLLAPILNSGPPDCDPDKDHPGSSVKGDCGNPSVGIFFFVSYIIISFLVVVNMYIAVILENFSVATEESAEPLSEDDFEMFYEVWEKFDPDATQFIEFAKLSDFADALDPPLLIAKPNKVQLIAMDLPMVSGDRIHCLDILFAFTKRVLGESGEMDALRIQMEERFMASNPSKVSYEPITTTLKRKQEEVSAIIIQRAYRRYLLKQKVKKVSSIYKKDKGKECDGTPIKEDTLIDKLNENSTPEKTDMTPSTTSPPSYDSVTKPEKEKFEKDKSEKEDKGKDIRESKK

Usually Ki stands for a measure of affinity in units of concentration, obtained from inhibition or displacement. A higher Ki goes with lower affinity. On to `NS(=O)(=O)c1ccc(N2C(=O)c3ccccc3C2=O)cc1`, for which the affinity in assay [1] corresponds to a Ki of 16 µM. Moreover, the “Clonic seizure threshold (PTZ dose)” value in the assay with Mus musculus [2] came out at 33.4 mg/kg. Besides, in the assay with Mus musculus [3], the “Tonic seizure threshold (PTZ dose)” value is 60.56 mg/kg.

On to `COc1ccc(N2C(=O)c3ccccc3C2=O)c([N+](=O)[O-])c1`, for which the Ki in assay [1] came out at 108 µM. Also, the “Clonic seizure threshold (PTZ dose)” value with Mus musculus [2] was found to be 49.4 mg/kg. Further, the “Tonic seizure threshold (PTZ dose)” value with Mus musculus [3] was found to be 61.92 mg/kg.

In assay [1], `O=C1c2ccccc2C(=O)N1c1ccc([N+](=O)[O-])cc1` had a Ki of 65.6 µM. In addition, in the assay on Mus musculus [2], the “Clonic seizure threshold (PTZ dose)” value amounted to 41.12 mg/kg. For the same molecule, the “Tonic seizure threshold (PTZ dose)” value with Mus musculus [3] was determined as 61.6 mg/kg.

`O=C1c2ccccc2C(=O)N1c1ccccc1[N+](=O)[O-]`: affinity in assay [1] was put at a Ki of 134 µM. Besides, the “Clonic seizure threshold (PTZ dose)” value in the assay with Mus musculus [2] was 46.34 mg/kg. The “Tonic seizure threshold (PTZ dose)” value with Mus musculus [3] was 65.66 mg/kg.

With `O=C1c2ccccc2C(=O)N1c1cccc([N+](=O)[O-])c1`, the Ki in assay [1] was 21.8 µM. The “Clonic seizure threshold (PTZ dose)” value in the assay on Mus musculus [2] is 64.89 mg/kg. For the same molecule, the “Tonic seizure threshold (PTZ dose)” value in the assay with Mus musculus [3] amounted to 96.84 mg/kg.

For `CC(=O)Nc1ccc(N2C(=O)c3ccccc3C2=O)cc1`, affinity in assay [1] was put at a Ki of 18.3 µM. Moreover, the “Clonic seizure threshold (PTZ dose)” value in the assay on Mus musculus [2] stood at 40.37 mg/kg. For the same molecule, the “Tonic seizure threshold (PTZ dose)” value in the assay on Mus musculus [3] worked out at 86.37 mg/kg.

Take `O=C1NC(=O)C(c2ccccc2)(c2ccccc2)N1` [PHENYTOIN]: the result in the assay on Mus musculus [4] was inactive. In the assay on Mus musculus [2], the “Clonic seizure threshold (PTZ dose)” value is 49.2 mg/kg. Besides, the “Tonic seizure threshold (PTZ dose)” value with Mus musculus [3] turned out to be 115 mg/kg.

Take `O=C(O)c1ccccc1N1C(=O)c2ccccc2C1=O` [N-PHTHALOYLANTHRANILIC ACID]: in assay [1], the Ki came out at 338 µM. Also, in the assay with Mus musculus [2], the “Clonic seizure threshold (PTZ dose)” value amounted to 42.95 mg/kg. For the same molecule, the “Tonic seizure threshold (PTZ dose)” value in the assay on Mus musculus [3] worked out at 58.08 mg/kg.

On to `COc1ccc(N2C(=O)c3ccccc3C2=O)c(N)c1`, for which the Ki in assay [1] came to 20.3 µM. Moreover, in the assay on Mus musculus [2], the “Clonic seizure threshold (PTZ dose)” value was found to be 56.34 mg/kg. Besides, the “Tonic seizure threshold (PTZ dose)” value with Mus musculus [3] is 98.12 mg/kg.

Turning to `O=C(O)c1ccc(N2C(=O)c3ccccc3C2=O)cc1O`, the Ki in assay [1] stood at 78.4 µM. The “Clonic seizure threshold (PTZ dose)” value in the assay on Mus musculus [2] came to 52.1 mg/kg. Also, in the assay on Mus musculus [3], the “Tonic seizure threshold (PTZ dose)” value was 64.97 mg/kg.

As to `NS(=O)(=O)c1nnc(N2C(=O)c3ccccc3C2=O)s1`, the inhibition constant Ki in assay [1] came out at 61.1 µM. Moreover, in the assay with Mus musculus [2], the “Clonic seizure threshold (PTZ dose)” value turned out to be 45.14 mg/kg. For the same molecule, the “Tonic seizure threshold (PTZ dose)” value in the assay with Mus musculus [3] is 62.35 mg/kg.

The molecule `O=C(O)c1ccc(N2C(=O)c3ccccc3C2=O)cc1` came in with a Ki in assay [1] of 50.4 µM. Also, in the assay on Mus musculus [2], the “Clonic seizure threshold (PTZ dose)” value was 46.65 mg/kg. For the same molecule, the “Tonic seizure threshold (PTZ dose)” value in the assay with Mus musculus [3] stood at 79.94 mg/kg.
